Laboratory results from ChEMBL document CHEMBL4673183, “Hit-to-lead optimization of a benzene sulfonamide series for potential antileishmanial agents” (RSC Med Chem, 2020).

test system: not listed separately; assay: in vitro; details: mouse, plasma

Compound | remaining at 6 h [%]
COc1ccc(C(=O)N2CCOCC2)cc1S(=O)(=O)N(Cc1ccc(F)cc1)Cc1ccc(C(F)(F)F)nc1 | 22
COc1ccc(C(=O)N2CCOCC2)cc1S(=O)(=O)N(Cc1ccccc1)Cc1cnc(C(F)(F)F)nc1 | 42

test system: Peritoneal macrophage; assay: cells; details: Mus musculus, Swiss, 120 h, read-out: pIC50 (converted)

Compound | IC50 [µM]
N#Cc1ccccc1S(=O)(=O)N(Cc1ccccc1)Cc1ccccc1 | > 64.6
COCCN(Cc1ccc(F)cc1)S(=O)(=O)c1cc(C#N)ccc1OC | > 64.6
COc1ccc(C(=O)O)cc1S(=O)(=O)N(Cc1ccccc1)Cc1ccccc1 | > 64.6
CS(=O)(=O)c1ccccc1S(=O)(=O)N(Cc1ccccc1)Cc1ccccc1 | > 64.6
COc1ccc(S(=O)(=O)N(Cc2ccccc2)Cc2ccccc2)cc1 | > 64.6
COc1ccc(S(N)(=O)=O)cc1S(=O)(=O)N(Cc1ccccc1)Cc1ccccc1 | > 64.6
COc1ncccc1S(=O)(=O)N(Cc1ccccc1)Cc1ccccc1 | 64.6
COc1ccc(OC)c(S(=O)(=O)N(Cc2ccc(F)cc2)c2ccc(F)cc2)c1 | > 64.6
COc1ccc(C(N)=O)cc1S(=O)(=O)N(Cc1ccccc1)Cc1ccccc1 | > 64.6
COCCOCN1CNc2cc(OC)c(S(=O)(=O)N(Cc3ccccc3)Cc3ccccc3)cc2S1(=O)=O | > 64.6
COc1ccc(OC)c(S(=O)(=O)N(Cc2ccc(F)cc2)Cc2nc(C)no2)c1 | > 64.6
COc1ccc(OC)c(S(=O)(=O)N(Cc2ccccc2)Cc2ccccc2)c1 | > 64.6
COc1ccc(CN2CCOCC2)cc1S(=O)(=O)N(Cc1ccc(F)cc1)Cc1ccc(F)cc1 | > 64.6
COc1ccc([S+](C)[O-])cc1S(=O)(=O)N(Cc1ccccc1)Cc1ccccc1 (stereo not drawn) | > 64.6
COc1ccc(C(=O)N2CCOCC2)cc1S(=O)(=O)N(Cc1ccc(F)cc1)Cc1ccc(C(F)(F)F)nc1 | > 64.6
Cn1cccc(S(=O)(=O)N(Cc2ccc(F)cc2)Cc2ccc(F)cc2)c1=O | 64.6

Compound | IC50 [µM]
COc1ccc(N2CCOCC2)cc1S(=O)(=O)N(Cc1ccc(F)cc1)Cc1ccc(F)cc1 | > 64.6
COc1ccc(C#N)cc1S(=O)(=O)N(Cc1ccc(F)cc1)C1CCOCC1 | > 64.6
COc1ccc(C(=O)N2CCOCC2)cc1S(=O)(=O)N(Cc1ccc(F)cc1)CC(C)C | > 64.6
COc1ccc(C(=O)NC2COC2)cc1S(=O)(=O)N(Cc1ccc(F)cc1)Cc1ccc(F)cc1 | > 64.6
COc1ccc(C#N)cc1S(=O)(=O)N(Cc1ccccc1)Cc1cnc(C(F)(F)F)nc1 | > 64.6
COc1ccc(C#N)cc1S(=O)(=O)N(Cc1ccc(C(F)(F)F)nc1)Cc1ccc(C(F)(F)F)nc1 | > 64.6
COc1ccc(C#N)cc1S(=O)(=O)N(Cc1ccccc1)Cc1ccccc1 | > 64.6
COc1ccc(S(C)(=O)=O)cc1S(=O)(=O)N(Cc1ccc(F)cc1)Cc1ccc(F)cc1 | > 64.6
COc1ccc(C(=O)N2CCOCC2)cc1S(=O)(=O)N(Cc1ccc(C(F)(F)F)nc1)CC(C)(C)C | > 64.6
COc1ccc(C(=O)N2CCOCC2)cc1S(=O)(=O)N(Cc1ccccc1)Cc1cnc(C(F)(F)F)nc1 | > 64.6
COc1ccc(C(=O)N2CCOCC2)cc1S(=O)(=O)N(Cc1ccccc1)CC(C)(C)C | > 64.6
COc1ccc(OC)c(S(=O)(=O)N(Cc2ccc(F)cc2)Cc2cnc(OC)nc2OC)c1 | > 64.6
O=S(=O)(c1cc(F)ccc1F)N(Cc1ccc(F)cc1)Cc1ccc(F)cc1 | > 64.6
COc1ccccc1S(=O)(=O)N(Cc1ccccc1)Cc1ccccc1 | > 64.6
COCCN(Cc1ccc(F)cc1)S(=O)(=O)c1cc(C(=O)N2CCOCC2)ccc1OC | > 64.6
